Experimental findings from ChEMBL document CHEMBL1201862, “PubChem BioAssay data set” (2004) are described below.

Active and inactive are the calls of the source.

In assay [1] the target is T1, Heat shock factor protein 1 (Mus musculus, UniProt P38532).
T1 sequence (P38532 whole entry): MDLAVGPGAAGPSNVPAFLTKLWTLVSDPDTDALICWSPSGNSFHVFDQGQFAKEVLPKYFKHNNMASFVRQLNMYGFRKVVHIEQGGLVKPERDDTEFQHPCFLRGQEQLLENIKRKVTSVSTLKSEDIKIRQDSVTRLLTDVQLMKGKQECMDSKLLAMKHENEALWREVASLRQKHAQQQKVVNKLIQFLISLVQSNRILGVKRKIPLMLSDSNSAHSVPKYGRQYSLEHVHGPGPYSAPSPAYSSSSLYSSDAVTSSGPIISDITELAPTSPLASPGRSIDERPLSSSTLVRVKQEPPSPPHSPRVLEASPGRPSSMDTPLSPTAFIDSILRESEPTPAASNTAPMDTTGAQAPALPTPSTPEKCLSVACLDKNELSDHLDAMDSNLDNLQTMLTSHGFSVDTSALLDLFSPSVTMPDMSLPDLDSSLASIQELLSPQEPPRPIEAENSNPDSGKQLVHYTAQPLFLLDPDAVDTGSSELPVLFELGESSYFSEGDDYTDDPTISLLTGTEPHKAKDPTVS
Briefly: enhancement of HSF1-driven luciferase signal – cell-based, NIH3T3, luminescence, dose retest, confirmation (AID 435004).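 Also: stress induced by proteasome inhibitor MG132 added 30 min after compound; luciferase reporter driven by HSF1 response element in NIH3T3 cells; actives raise luminescence as potentiators of the MG132 stress response.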 The format is functional.

Assay [2] can be described thus: Luminescence Cell-Based Dose Confirmation HTS to Identify Inhibitors of Platelet Dense Granule Release. [Related pubchem assays: 1663 (Primary HTS), 1678 (Summary of Project)]. The format is functional.
Another assay has as its target Genome polyprotein (dengue virus type 2, UniProt P29990). Briefly: flavivirus cap methylation enzyme inhibition – biochemical, confirmation dose response, primary screen (AID 588689). The class given is functional.
Assay [3] has as its target Luciferin 4-monooxygenase (Photinus pyralis, UniProt P08659). In words: inhibition of purified Photinus pyralis luciferase – biochemical, luminescence, dose response (AID 1891).
Assay [4] addresses T2, Microphthalmia-associated transcription factor (Homo sapiens, UniProt O75030).
T2 sequence (O75030 whole entry): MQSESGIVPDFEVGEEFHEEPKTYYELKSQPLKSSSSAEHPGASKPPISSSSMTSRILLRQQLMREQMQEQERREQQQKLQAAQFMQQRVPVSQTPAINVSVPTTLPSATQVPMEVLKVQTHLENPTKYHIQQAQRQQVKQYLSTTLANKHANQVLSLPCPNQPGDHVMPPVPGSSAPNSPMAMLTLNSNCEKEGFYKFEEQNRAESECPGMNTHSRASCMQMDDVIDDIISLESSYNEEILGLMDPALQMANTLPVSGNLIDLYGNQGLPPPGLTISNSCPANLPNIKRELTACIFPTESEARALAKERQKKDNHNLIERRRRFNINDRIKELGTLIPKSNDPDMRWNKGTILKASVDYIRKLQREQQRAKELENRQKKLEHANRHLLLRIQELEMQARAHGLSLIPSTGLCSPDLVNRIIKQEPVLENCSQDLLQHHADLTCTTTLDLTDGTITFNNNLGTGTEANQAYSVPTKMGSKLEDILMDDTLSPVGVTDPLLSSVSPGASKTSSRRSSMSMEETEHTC
Briefly: reducers of TRPM1 reporter luminescence, concentration series – cell-based, SK-MEL-5, cherry-picked, set 3, MITF inhibitor project, dose response (AID 493073).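 Also: SK-MEL-5 melanoma cells with luciferase driven by the MITF target TRPM1 promoter.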 The class given is functional.

In the next assay the target is Cytochrome P450 3A4 (Homo sapiens, UniProt P08684).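 Also: CYP3A4 tested as one member of a cytochrome P450 panel screen.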
The target of assay [5] is T3, Short transient receptor potential channel 4 (Mus musculus, UniProt Q9QUQ5).
T3 sequence (Q9QUQ5 whole entry): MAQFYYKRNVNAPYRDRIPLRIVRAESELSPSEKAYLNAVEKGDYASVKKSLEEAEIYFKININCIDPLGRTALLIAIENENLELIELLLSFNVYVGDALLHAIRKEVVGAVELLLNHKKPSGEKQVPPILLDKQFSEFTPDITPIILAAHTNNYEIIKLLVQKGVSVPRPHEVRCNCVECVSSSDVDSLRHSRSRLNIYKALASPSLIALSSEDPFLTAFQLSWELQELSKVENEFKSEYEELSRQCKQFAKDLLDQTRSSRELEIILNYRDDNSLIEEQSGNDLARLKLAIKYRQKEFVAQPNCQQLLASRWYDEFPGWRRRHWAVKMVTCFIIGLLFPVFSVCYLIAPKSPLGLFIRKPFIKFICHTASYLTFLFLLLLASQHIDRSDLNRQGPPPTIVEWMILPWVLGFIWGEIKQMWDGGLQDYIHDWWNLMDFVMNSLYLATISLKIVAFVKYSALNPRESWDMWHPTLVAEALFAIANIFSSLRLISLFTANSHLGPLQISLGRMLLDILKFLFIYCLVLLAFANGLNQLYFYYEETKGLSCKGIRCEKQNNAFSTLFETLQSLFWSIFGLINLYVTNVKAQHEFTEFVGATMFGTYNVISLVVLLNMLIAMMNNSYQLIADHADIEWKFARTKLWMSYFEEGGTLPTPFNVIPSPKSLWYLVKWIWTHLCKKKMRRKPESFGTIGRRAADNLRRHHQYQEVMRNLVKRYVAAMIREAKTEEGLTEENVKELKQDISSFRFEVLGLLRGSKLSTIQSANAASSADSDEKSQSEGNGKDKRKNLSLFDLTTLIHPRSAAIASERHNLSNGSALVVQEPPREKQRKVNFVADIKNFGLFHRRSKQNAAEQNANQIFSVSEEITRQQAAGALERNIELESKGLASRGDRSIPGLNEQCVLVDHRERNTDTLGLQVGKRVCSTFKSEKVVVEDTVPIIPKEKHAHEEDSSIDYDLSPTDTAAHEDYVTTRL
In words: block of DAMGO-driven TRPC4 calcium entry – cell-based, HEK293 TRPC4/mu-opioid, Fluo-4 calcium, dose response (AID 434942).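 Also: potency of inhibitors blocking the TRPC4 calcium response.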 The format is functional.

The target in assay [6] is DNA dC->dU-editing enzyme APOBEC-3G (Homo sapiens, UniProt Q9HC16). The format is functional.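 Also: Dose-response counterscreen measuring inhibition of APOBEC3G DNA deaminase activity, run while confirming APOBEC3A inhibitors.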
The target in assay [7] is DNA dC->dU-editing enzyme APOBEC-3A (Homo sapiens, UniProt P31941). In words: Dose Response confirmation of small molecule APOBEC3A DNA Deaminase Inhibitors via a fluorescence-based single-stranded DNA deaminase assay. [Related pubchem assays (depositor defined):AID493011, AID493024]. The format is functional.
Assay [8] has as its target T4, Carboxy-terminal domain RNA polymerase II polypeptide A small phosphatase 1 (Homo sapiens, UniProt Q9GZU7).
T4 sequence (Q9GZU7 whole entry): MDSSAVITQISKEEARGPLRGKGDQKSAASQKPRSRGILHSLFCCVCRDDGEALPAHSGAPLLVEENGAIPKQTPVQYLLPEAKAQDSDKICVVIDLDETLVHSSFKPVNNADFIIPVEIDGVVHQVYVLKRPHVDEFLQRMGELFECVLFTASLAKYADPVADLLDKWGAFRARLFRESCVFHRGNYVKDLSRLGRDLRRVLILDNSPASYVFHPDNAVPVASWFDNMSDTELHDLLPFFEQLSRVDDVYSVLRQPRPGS
In words: CTDSP1 inhibitors, concentration-response, biochemical, absorbance readout, ultra-high-throughput screen actives (AID 540297). The format is functional.

A short description of assay [9]: Luminescence Cell-Based Dose Response HTS to Identify Activators of Luciferase Translation or Activity in H4 […] Cells. [Related pubchem assays: 1829 (Project Summary), 1814 (Primary HTS)]. The class given is functional.
The next assay has as its target T5, Protein skinhead-1 (Caenorhabditis elegans, UniProt P34707).
T5 sequence (P34707 whole entry): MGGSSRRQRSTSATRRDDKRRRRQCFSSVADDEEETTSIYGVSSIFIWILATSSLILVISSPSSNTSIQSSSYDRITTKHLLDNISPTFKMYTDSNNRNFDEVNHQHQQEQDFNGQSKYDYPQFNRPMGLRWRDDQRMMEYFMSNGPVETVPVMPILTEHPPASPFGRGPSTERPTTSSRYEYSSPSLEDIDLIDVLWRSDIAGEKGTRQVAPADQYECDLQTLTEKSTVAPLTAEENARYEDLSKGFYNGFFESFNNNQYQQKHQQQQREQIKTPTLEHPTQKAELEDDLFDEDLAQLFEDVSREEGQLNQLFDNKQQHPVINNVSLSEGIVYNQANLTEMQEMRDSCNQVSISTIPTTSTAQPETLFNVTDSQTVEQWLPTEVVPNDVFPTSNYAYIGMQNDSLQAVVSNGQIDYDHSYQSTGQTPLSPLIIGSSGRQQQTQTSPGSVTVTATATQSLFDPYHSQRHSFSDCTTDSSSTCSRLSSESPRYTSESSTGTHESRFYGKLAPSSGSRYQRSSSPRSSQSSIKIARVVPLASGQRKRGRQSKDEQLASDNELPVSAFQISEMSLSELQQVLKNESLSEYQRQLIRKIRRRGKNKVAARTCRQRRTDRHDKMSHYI
The format is functional.

Assay [10] deals with BJ. In words: BJ-TERT fibroblast viability loss – cell-based, RAS-independent, luminescence, dose response (AID 1933). The class given is functional. The following applies: Homo sapiens.
Assay [11] can be described thus: Luminescence Cell-Based Dose Confirmation HTS to Identify Activators of 5'UTR Stem-Loop Driven Alpha-Synuclein mRNA Translation in H4 Neuroglioblastoma Cells. [Related pubchem assays: 1829 (Project Summary), 1814 (Primary HTS)]. The format is functional.
Assay [12] concerns BJ. Briefly: BJ-TERT-LT-ST fibroblast viability loss – cell-based, RAS-independent, luminescence, dose response (AID 1935).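 Also: BJ fibroblasts immortalized with TERT plus LT and ST oncogenes.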 The class given is functional. The following applies: Homo sapiens.
For assay [13], the system named is BJ. Briefly: cells. The class given is functional, cell-based. The following applies: Homo sapiens.
The test system of a further assay is H4. In words: Luminescence Cell-Based Dose Response HTS to Identify Activators of 5'UTR Stem-Loop Driven Prion Protein mRNA Translation in H4 Neuroglioblastoma Cells. [Related pubchem assays: 1829 (Project Summary), 1814 (Primary HTS)]. The format is functional. As to conditions: Homo sapiens.
The nature of assay [14]: DRD fibroblast viability loss – cell-based, non-viral oncogenic, luminescence, dose response (AID 1934). The class given is functional. The following applies: Homo sapiens.
For assay [15], the target named is T1, Heat shock factor protein 1. In words: decrease of HSF1-responsive luciferase luminescence – cell-based, NIH3T3, dose retest, confirmation (AID 2382).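 Also: NIH3T3 fibroblasts with HSF1-driven luciferase reporter stressed by proteasome inhibitor MG132; luminescence from HSF1-driven luciferase expression after 8 hours of MG132 stress.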 The class given is functional.

Sequence of DNA dC->dU-editing enzyme APOBEC-3G (Q9HC16 whole entry): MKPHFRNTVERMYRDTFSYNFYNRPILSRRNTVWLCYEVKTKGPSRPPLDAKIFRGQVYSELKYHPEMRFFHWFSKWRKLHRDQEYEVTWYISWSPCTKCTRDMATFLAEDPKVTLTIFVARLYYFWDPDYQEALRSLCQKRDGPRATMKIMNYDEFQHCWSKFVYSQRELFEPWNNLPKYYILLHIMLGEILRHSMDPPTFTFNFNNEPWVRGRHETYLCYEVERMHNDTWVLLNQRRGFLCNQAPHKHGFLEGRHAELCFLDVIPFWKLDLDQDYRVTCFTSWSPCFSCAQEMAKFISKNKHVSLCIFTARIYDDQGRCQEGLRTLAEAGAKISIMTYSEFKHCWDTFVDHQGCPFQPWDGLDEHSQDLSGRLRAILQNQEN
Sequence of DNA dC->dU-editing enzyme APOBEC-3A (P31941 whole entry, the tested form may be a part): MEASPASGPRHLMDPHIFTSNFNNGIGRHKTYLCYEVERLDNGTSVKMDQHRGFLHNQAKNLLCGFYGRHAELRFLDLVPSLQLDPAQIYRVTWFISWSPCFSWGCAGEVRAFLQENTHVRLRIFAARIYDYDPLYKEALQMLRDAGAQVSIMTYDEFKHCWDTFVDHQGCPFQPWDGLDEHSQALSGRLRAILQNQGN
Sequence of Cytochrome P450 3A4 (P08684 whole entry): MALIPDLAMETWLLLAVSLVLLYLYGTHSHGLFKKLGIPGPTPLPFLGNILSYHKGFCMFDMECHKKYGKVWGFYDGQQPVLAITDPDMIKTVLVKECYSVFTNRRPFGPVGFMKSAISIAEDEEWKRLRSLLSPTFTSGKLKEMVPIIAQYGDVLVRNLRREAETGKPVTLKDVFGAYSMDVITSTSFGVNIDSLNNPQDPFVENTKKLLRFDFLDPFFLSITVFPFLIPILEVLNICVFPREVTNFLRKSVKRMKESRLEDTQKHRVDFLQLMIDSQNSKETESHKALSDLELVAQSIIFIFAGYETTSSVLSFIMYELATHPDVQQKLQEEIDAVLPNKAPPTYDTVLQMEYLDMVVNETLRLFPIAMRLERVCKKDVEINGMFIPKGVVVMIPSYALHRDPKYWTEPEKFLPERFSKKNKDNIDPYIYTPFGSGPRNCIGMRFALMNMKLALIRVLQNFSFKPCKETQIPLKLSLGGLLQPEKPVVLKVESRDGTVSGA
Sequence of Genome polyprotein (P29990 2492-3391 limits assumed): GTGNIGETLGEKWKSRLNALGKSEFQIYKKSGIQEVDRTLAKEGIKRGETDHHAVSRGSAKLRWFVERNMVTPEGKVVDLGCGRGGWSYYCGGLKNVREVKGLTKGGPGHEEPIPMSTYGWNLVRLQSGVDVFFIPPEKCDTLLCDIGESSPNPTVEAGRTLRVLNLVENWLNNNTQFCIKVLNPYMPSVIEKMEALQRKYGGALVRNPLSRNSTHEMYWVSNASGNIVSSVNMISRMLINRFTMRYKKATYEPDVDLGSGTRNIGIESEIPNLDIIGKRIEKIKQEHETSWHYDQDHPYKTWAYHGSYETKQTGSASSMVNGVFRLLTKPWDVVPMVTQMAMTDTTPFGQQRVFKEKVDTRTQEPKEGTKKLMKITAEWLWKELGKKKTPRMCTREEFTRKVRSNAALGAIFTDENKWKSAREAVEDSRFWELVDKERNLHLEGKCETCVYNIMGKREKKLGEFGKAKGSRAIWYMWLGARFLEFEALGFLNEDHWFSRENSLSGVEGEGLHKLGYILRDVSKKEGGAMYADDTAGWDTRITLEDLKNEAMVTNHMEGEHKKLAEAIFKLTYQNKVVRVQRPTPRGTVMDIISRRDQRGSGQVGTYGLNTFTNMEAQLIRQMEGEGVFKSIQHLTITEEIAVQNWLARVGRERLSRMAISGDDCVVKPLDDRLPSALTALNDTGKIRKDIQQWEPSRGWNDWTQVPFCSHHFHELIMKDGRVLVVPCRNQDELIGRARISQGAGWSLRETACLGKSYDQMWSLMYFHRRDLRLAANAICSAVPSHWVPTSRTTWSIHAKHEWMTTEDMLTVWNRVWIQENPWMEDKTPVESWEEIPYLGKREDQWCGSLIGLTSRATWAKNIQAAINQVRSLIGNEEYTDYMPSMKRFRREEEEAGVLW
Sequence of Luciferin 4-monooxygenase (P08659 whole entry): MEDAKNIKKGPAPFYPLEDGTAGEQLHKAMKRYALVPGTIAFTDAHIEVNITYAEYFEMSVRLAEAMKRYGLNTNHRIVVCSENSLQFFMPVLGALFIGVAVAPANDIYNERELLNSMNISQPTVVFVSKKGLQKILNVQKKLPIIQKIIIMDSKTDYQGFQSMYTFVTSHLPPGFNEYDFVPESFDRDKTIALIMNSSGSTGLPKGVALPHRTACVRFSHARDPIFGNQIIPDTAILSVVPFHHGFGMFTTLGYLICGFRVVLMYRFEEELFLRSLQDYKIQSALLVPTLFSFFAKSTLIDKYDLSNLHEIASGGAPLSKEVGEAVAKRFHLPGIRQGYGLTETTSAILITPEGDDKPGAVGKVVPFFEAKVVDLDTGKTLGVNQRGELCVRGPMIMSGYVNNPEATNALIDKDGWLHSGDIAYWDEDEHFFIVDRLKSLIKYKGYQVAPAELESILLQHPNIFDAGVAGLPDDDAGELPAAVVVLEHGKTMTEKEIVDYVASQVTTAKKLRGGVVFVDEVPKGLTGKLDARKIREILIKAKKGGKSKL

A word on the EC50: it is the midpoint of the concentration-response curve. Usually IC50 stands for the concentration needed to halve the response being measured. As a reminder, the AC50 is the concentration giving half of the maximal activity seen. For `CC1(C)CC(=O)C=C(NC2=CC3OC(c4ccccc4)OCC3OC2=O)C1` (centres undefined), the EC50 in [1] is 6.65 µM (inconclusive); in assay [2], 14.8 µM (active); in [3], > 112 µM (not active). The IC50 on Genome polyprotein was > 100 µM (active). The AC50 in [4] was 7.71 µM (active).

In the case of `CCCCNc1nc(-c2ccccc2)c(C(=O)OCC)cc1C#N`, on Cytochrome P450 3A4, the AC50 was 28.2 µM (inconclusive). The EC50 in [5] was 1.19 µM (active).

As for `CC(=O)Nc1ccc(-c2ccccc2)s1`, the IC50 in assay [6] was 5.05 µM (active); in [7], 5.3 µM (active).

As to `COc1cc(/C=C/c2cc[n+](C)cc2)ccc1OCC(=O)Nc1ccccc1`, the IC50 in [6] is 2.02 µM (active); in assay [8], 5.84 µM (active); in assay [7], 2.93 µM (active).

With `COc1cc2c(cc1OC)C(c1ccccc1)N(C(=O)CCl)CC2` (centres undefined), the EC50 in assay [9] was > 120 µM (not active); in the assay on BJ [10], 5.08 µM (inconclusive); in assay [11], > 120 µM (not active); in the assay on BJ [12], 4.74 µM (active); in the assay with BJ [13], 7.81 µM (inconclusive); with H4, > 120 µM (not active). In [14], the EC50 is 8.09 µM (active). For the same compound, the IC50 at Protein skinhead-1 is > 100 µM (inactive). For the same compound, the AC50 in [4] was 5.36 µM (active).

For the compound `CCCC[N+]12CCC(CC1)C(C(O)(c1ccccc1)c1ccccc1)C2` (centres undefined), the IC50 in [6] was 2.79 µM (active); in assay [7], 2.74 µM (active). The EC50 in [15] is > 195 µM (not active).

Turning to `N=C1/C(=C/c2ccco2)C(=O)N=C2SC(CC(=O)N3CCCC3)=NN12`, the IC50 in [6] was 37.6 µM (active); in [8] it was 7.01 µM (active); in assay [7], 18.5 µM (active).

With `COC(=O)c1ccc(CSc2nc3ccccc3c(=O)n2CC(C)C)o1`, the EC50 is > 260 µM (inactive) in [1] and 3.35 µM (active) in assay [5].
